Assay results: patent US20260130395A1, “Water Dispersible Botanical Compositions” (Aquila Black Limited, priority 2021, published 2026)

What was measured:
Format in all cases: physicochemical
[1] = Stability of Nanoemulsion Concentrate 3 (α-tocopherol and Vitamin B12 content) by LCMSMS; conditions: for Stability of Vitamin B12 in Nanoemulsion Concentrate 3: average of triplicate
Method: At each time period (0, 7, 28, 60, 120, 150 and 180 days), triplicate samples were analysed for content of α-tocopherol and Vitamin B12.
(FIGS. 14 and 15, Table 13). Data reported in Table 13 and plotted in FIGS. 14 and 15 are average values of the triplicate measurements taken.

[2] = Stability of cannabinoid entourage and Vitamin E components of the powder concentrate by LCMSMS; conditions: for Stability of Plant-Derived Cannabinoid Compounds in Powder Concentrate: powder stored at 21-25° C.
Method: At each time period, 0.05 g of powder was dissolved in 10 ml-15 of ethanol, diluted to fall within the analytical range, and injected into the LCMSMS for analysis.

[3] = Stability of cannabinoid compounds and Vitamin E components in Beverage 2 (AB Red) by LCMSMS; conditions: monitored 570 days
Method: The stability of the plant-derived cannabinoid compounds and Vitamin E components of the beverage stored 8° C. and at room temperature (21-25° C.) were monitored, over a period of 570 days via Liquid Chromatography-tandem Mass Spectrometry [LCMSMS, AGilent 6590, C18, 3×50 mm, 2.7 m (Agilent InfinityLab Poroshell 120 EC-C18), Electrospray Ionization detector]. The LCMSMS was calibrated for 0-50 ng/ml cannabinoids with the same resin material used in the preparation of the concentrates. At each time period, 100 ml of beverage was diluted with 10 ml of methanol and injected into the LCMSMS for analysis.

[4] = Stability of cannabinoid compounds and Vitamin E components in Beverage 1 (AB White) by LCMSMS; conditions: for storage time after which some slight degradation is shown: monitored 570 days

Vitamin B12
Stability of Vitamin B12 in Nanoemulsion Concentrate 3 ([1]; Refrigerated (2-4° C.), 0 days): 28.67 ng/mL
Stability of Vitamin B12 in Nanoemulsion Concentrate 3 ([1]; Refrigerated (2-4° C.), 7 days): 30.33 ng/mL
Stability of Vitamin B12 in Nanoemulsion Concentrate 3 ([1]; Refrigerated (2-4° C.), 28 days): 29.33 ng/mL
Stability of Vitamin B12 in Nanoemulsion Concentrate 3 ([1]; Refrigerated (2-4° C.), 60 days): 30.00 ng/mL
Stability of Vitamin B12 in Nanoemulsion Concentrate 3 ([1]; Refrigerated (2-4° C.), 120 days): 32.00 ng/mL
Stability of Vitamin B12 in Nanoemulsion Concentrate 3 ([1]; Refrigerated (2-4° C.), 150 days): 29.67 ng/mL
Stability of Vitamin B12 in Nanoemulsion Concentrate 3 ([1]; Refrigerated (2-4° C.), 180 days): 32.50 ng/mL
Stability of Vitamin B12 in Nanoemulsion Concentrate 3 ([1]; Room Temperature (21-25° C.), 0 days): 28.67 ng/mL
Stability of Vitamin B12 in Nanoemulsion Concentrate 3 ([1]; Room Temperature (21-25° C.), 7 days): 24.00 ng/mL
Stability of Vitamin B12 in Nanoemulsion Concentrate 3 ([1]; Room Temperature (21-25° C.), 28 days): 22.67 ng/mL
Stability of Vitamin B12 in Nanoemulsion Concentrate 3 ([1]; Room Temperature (21-25° C.), 60 days): 22.67 ng/mL
Stability of Vitamin B12 in Nanoemulsion Concentrate 3 ([1]; Room Temperature (21-25° C.), 120 days): 19.67 ng/mL
Stability of Vitamin B12 in Nanoemulsion Concentrate 3 ([1]; Room Temperature (21-25° C.), 150 days): 19.00 ng/mL
Stability of Vitamin B12 in Nanoemulsion Concentrate 3 ([1]; Room Temperature (21-25° C.), 180 days): 16.50 ng/mL
stability in Nanoemulsion Concentrate 3 (in words) ([1]; after 180 days stored at 21-25° C.): some slight degradation
stability in Nanoemulsion Concentrate 3 (in words) ([1]; stored at 2-4° C., 180 days): high degree of stability

C=C(C)[C@@H]1CCC(C)=C[C@H]1c1c(O)cc(CCCCC)cc1O [CBD, cannabidiol, reference compound]
degradation over the entire period (in words) ([2]; powder concentrate stored at 21-25° C., 570 days): no significant degradation
Stability of Plant-Derived Cannabinoid Compounds in Powder Concentrate ([2]; 0 days): 5.85 mg/g powder
Stability of Plant-Derived Cannabinoid Compounds in Powder Concentrate ([2]; 1 days): 5.69 mg/g powder
Stability of Plant-Derived Cannabinoid Compounds in Powder Concentrate ([2]; 2 days): 5.76 mg/g powder
Stability of Plant-Derived Cannabinoid Compounds in Powder Concentrate ([2]; 3 days): 5.8 mg/g powder
Stability of Plant-Derived Cannabinoid Compounds in Powder Concentrate ([2]; 5 days): 5.84 mg/g powder
Stability of Plant-Derived Cannabinoid Compounds in Powder Concentrate ([2]; 8 days): 5.91 mg/g powder
Stability of Plant-Derived Cannabinoid Compounds in Powder Concentrate ([2]; 9 days): 6.01 mg/g powder
Stability of Plant-Derived Cannabinoid Compounds in Powder Concentrate ([2]; 10 days): 5.69 mg/g powder
Stability of Plant-Derived Cannabinoid Compounds in Powder Concentrate ([2]; 11 days): 6.00 mg/g powder
Stability of Plant-Derived Cannabinoid Compounds in Powder Concentrate ([2]; 12 days): 5.76 mg/g powder
Stability of Plant-Derived Cannabinoid Compounds in Powder Concentrate ([2]; 15 days): 5.85 mg/g powder
Stability of Plant-Derived Cannabinoid Compounds in Powder Concentrate ([2]; 16 days): 5.97 mg/g powder
Stability of Plant-Derived Cannabinoid Compounds in Powder Concentrate ([2]; 17 days): 5.97 mg/g powder
Stability of Plant-Derived Cannabinoid Compounds in Powder Concentrate ([2]; 18 days): 6.01 mg/g powder
Stability of Plant-Derived Cannabinoid Compounds in Powder Concentrate ([2]; 19 days): 5.74 mg/g powder
Stability of Plant-Derived Cannabinoid Compounds in Powder Concentrate ([2]; 22 days): 5.84 mg/g powder
Stability of Plant-Derived Cannabinoid Compounds in Powder Concentrate ([2]; 23 days): 6.10 mg/g powder
Stability of Plant-Derived Cannabinoid Compounds in Powder Concentrate ([2]; 24 days): 5.89 mg/g powder
Stability of Plant-Derived Cannabinoid Compounds in Powder Concentrate ([2]; 25 days): 6.01 mg/g powder
Stability of Plant-Derived Cannabinoid Compounds in Powder Concentrate ([2]; 26 days): 6.00 mg/g powder
Stability of Plant-Derived Cannabinoid Compounds in Powder Concentrate ([2]; 29 days): 5.97 mg/g powder
Stability of Plant-Derived Cannabinoid Compounds in Powder Concentrate ([2]; 30 days): 5.94 mg/g powder
Stability of Plant-Derived Cannabinoid Compounds in Powder Concentrate ([2]; 60 days): 5.66 mg/g powder
Stability of Plant-Derived Cannabinoid Compounds in Powder Concentrate ([2]; 90 days): 6.00 mg/g powder
Stability of Plant-Derived Cannabinoid Compounds in Powder Concentrate ([2]; 120 days): 5.80 mg/g powder
Stability of Plant-Derived Cannabinoid Compounds in Powder Concentrate ([2]; 150 days): 5.65 mg/g powder
Stability of Plant-Derived Cannabinoid Compounds in Powder Concentrate ([2]; 180 days): 5.93 mg/g powder
Stability of Plant-Derived Cannabinoid Compounds in Powder Concentrate ([2]; 210 days): 5.83 mg/g powder
Stability of Plant-Derived Cannabinoid Compounds in Powder Concentrate ([2]; 240 days): 5.98 mg/g powder
Stability of Plant-Derived Cannabinoid Compounds in Powder Concentrate ([2]; 270 days): 5.72 mg/g powder
Stability of Plant-Derived Cannabinoid Compounds in Powder Concentrate ([2]; 300 days): 5.84 mg/g powder
Stability of Plant-Derived Cannabinoid Compounds in Powder Concentrate ([2]; 330 days): 6.01 mg/g powder
Stability of Plant-Derived Cannabinoid Compounds in Powder Concentrate ([2]; 360 days): 5.97 mg/g powder
Stability of Plant-Derived Cannabinoid Compounds in Powder Concentrate ([2]; 390 days): 5.93 mg/g powder
Stability of Plant-Derived Cannabinoid Compounds in Powder Concentrate ([2]; 420 days): 5.94 mg/g powder
Stability of Plant-Derived Cannabinoid Compounds in Powder Concentrate ([2]; 450 days): 5.65 mg/g powder
Stability of Plant-Derived Cannabinoid Compounds in Powder Concentrate ([2]; 480 days): 5.66 mg/g powder
Stability of Plant-Derived Cannabinoid Compounds in Powder Concentrate ([2]; 510 days): 6.01 mg/g powder
Stability of Plant-Derived Cannabinoid Compounds in Powder Concentrate ([2]; 540 days): 5.81 mg/g powder
Stability of Plant-Derived Cannabinoid Compounds in Powder Concentrate ([2]; 570 days): 5.85 mg/g powder
storage time after which some slight degradation is shown ([3]; AB Red stored at 8° C.): > 420 days
storage time after which some slight degradation is shown ([3]; AB Red stored at 21-25° C.): > 390 days
Stability of Plant-Derived Cannabinoid Compounds in AB White, 8° C. ([4]; AB White stored at 8° C., 0 days): 28.5 µg/mL
Stability of Plant-Derived Cannabinoid Compounds in AB White, 8° C. ([4]; AB White stored at 8° C., 1 days): 27.65 µg/mL
Stability of Plant-Derived Cannabinoid Compounds in AB White, 8° C. ([4]; AB White stored at 8° C., 2 days): 27.67 µg/mL
Stability of Plant-Derived Cannabinoid Compounds in AB White, 8° C. ([4]; AB White stored at 8° C., 3 days): 27.96 µg/mL
Stability of Plant-Derived Cannabinoid Compounds in AB White, 8° C. ([4]; AB White stored at 8° C., 5 days): 28.61 µg/mL
Stability of Plant-Derived Cannabinoid Compounds in AB White, 8° C. ([4]; AB White stored at 8° C., 8 days): 28.47 µg/mL
Stability of Plant-Derived Cannabinoid Compounds in AB White, 8° C. ([4]; AB White stored at 8° C., 9 days): 28.44 µg/mL
Stability of Plant-Derived Cannabinoid Compounds in AB White, 8° C. ([4]; AB White stored at 8° C., 10 days): 27.87 µg/mL
Stability of Plant-Derived Cannabinoid Compounds in AB White, 8° C. ([4]; AB White stored at 8° C., 11 days): 28.13 µg/mL
Stability of Plant-Derived Cannabinoid Compounds in AB White, 8° C. ([4]; AB White stored at 8° C., 12 days): 28.10 µg/mL
Stability of Plant-Derived Cannabinoid Compounds in AB White, 8° C. ([4]; AB White stored at 8° C., 15 days): 27.99 µg/mL
Stability of Plant-Derived Cannabinoid Compounds in AB White, 8° C. ([4]; AB White stored at 8° C., 16 days): 28.04 µg/mL
Stability of Plant-Derived Cannabinoid Compounds in AB White, 8° C. ([4]; AB White stored at 8° C., 17 days): 27.84 µg/mL
Stability of Plant-Derived Cannabinoid Compounds in AB White, 8° C. ([4]; AB White stored at 8° C., 18 days): 27.87 µg/mL
Stability of Plant-Derived Cannabinoid Compounds in AB White, 8° C. ([4]; AB White stored at 8° C., 19 days): 28.36 µg/mL
Stability of Plant-Derived Cannabinoid Compounds in AB White, 8° C. ([4]; AB White stored at 8° C., 22 days): 28.50 µg/mL
Stability of Plant-Derived Cannabinoid Compounds in AB White, 8° C. ([4]; AB White stored at 8° C., 23 days): 27.67 µg/mL
Stability of Plant-Derived Cannabinoid Compounds in AB White, 8° C. ([4]; AB White stored at 8° C., 24 days): 28.44 µg/mL
Stability of Plant-Derived Cannabinoid Compounds in AB White, 8° C. ([4]; AB White stored at 8° C., 25 days): 27.65 µg/mL
Stability of Plant-Derived Cannabinoid Compounds in AB White, 8° C. ([4]; AB White stored at 8° C., 26 days): 27.73 µg/mL
Stability of Plant-Derived Cannabinoid Compounds in AB White, 8° C. ([4]; AB White stored at 8° C., 29 days): 28.24 µg/mL
Stability of Plant-Derived Cannabinoid Compounds in AB White, 8° C. ([4]; AB White stored at 8° C., 30 days): 27.93 µg/mL
Stability of Plant-Derived Cannabinoid Compounds in AB White, 8° C. ([4]; AB White stored at 8° C., 60 days): 27.73 µg/mL
Stability of Plant-Derived Cannabinoid Compounds in AB White, 8° C. ([4]; AB White stored at 8° C., 90 days): 27.87 µg/mL
Stability of Plant-Derived Cannabinoid Compounds in AB White, 8° C. ([4]; AB White stored at 8° C., 120 days): 27.39 µg/mL
Stability of Plant-Derived Cannabinoid Compounds in AB White, 8° C. ([4]; AB White stored at 8° C., 150 days): 28.59 µg/mL
Stability of Plant-Derived Cannabinoid Compounds in AB White, 8° C. ([4]; AB White stored at 8° C., 180 days): 27.59 µg/mL
Stability of Plant-Derived Cannabinoid Compounds in AB White, 8° C. ([4]; AB White stored at 8° C., 210 days): 27.76 µg/mL
Stability of Plant-Derived Cannabinoid Compounds in AB White, 8° C. ([4]; AB White stored at 8° C., 240 days): 27.79 µg/mL
Stability of Plant-Derived Cannabinoid Compounds in AB White, 8° C. ([4]; AB White stored at 8° C., 270 days): 28.07 µg/mL
Stability of Plant-Derived Cannabinoid Compounds in AB White, 8° C. ([4]; AB White stored at 8° C., 300 days): 27.96 µg/mL
Stability of Plant-Derived Cannabinoid Compounds in AB White, 8° C. ([4]; AB White stored at 8° C., 330 days): 27.33 µg/mL
Stability of Plant-Derived Cannabinoid Compounds in AB White, 8° C. ([4]; AB White stored at 8° C., 360 days): 27.79 µg/mL
Stability of Plant-Derived Cannabinoid Compounds in AB White, 8° C. ([4]; AB White stored at 8° C., 390 days): 27.50 µg/mL
Stability of Plant-Derived Cannabinoid Compounds in AB White, 8° C. ([4]; AB White stored at 8° C., 420 days): 27.50 µg/mL
Stability of Plant-Derived Cannabinoid Compounds in AB White, 8° C. ([4]; AB White stored at 8° C., 480 days): 27.13 µg/mL
Stability of Plant-Derived Cannabinoid Compounds in AB White, 8° C. ([4]; AB White stored at 8° C., 510 days): 26.48 µg/mL
Stability of Plant-Derived Cannabinoid Compounds in AB White, 8° C. ([4]; AB White stored at 8° C., 540 days): 26.51 µg/mL
Stability of Plant-Derived Cannabinoid Compounds in AB White, 8° C. ([4]; AB White stored at 8° C., 570 days): 26.22 µg/mL
storage time after which some slight degradation is shown ([4]; AB White stored at 8° C.): > 480 days
storage time after which some slight degradation is shown ([4]; AB White stored at 21-25° C.): > 390 days
